Results on 4 molecules are retold here after US6340686B1, “Thienopyrimidine compounds, their production and use” (Takeda Chemical Industries, Ltd., priority 1999, dated 2002).

For data set [1], the system named is plasma LH. Briefly: Suppression of plasma LH in castrated monkeys. It counts as in vivo, cynomolgus monkeys (Macaca fascicularis). Conditions: castrated male cynomolgus monkeys. On the procedure: The Example compound No. 2 was orally administered to castrated male cynomolgus monkeys (Macaca fascicularis), and plasma LH was quantified. The male cynomolgus monkeys, used at 4 years 9 months to 6 years 3 months of age at time of experimentation, had been castrated more than 3 months prior to the examination. Test animals [n=3] were given 30 mg/kg (3 ml/kg) of the compound suspended in 0.5% methyl cellulose at a final concentration of 1% by oral administration, and control animals [n=2] were given 3 ml/kg of the 0.5% methyl cellulose dispersant alone by oral administration. At 24 hours and immediately before administration and at 2, 4, 6, 8, 24, and 48 hours after administration, blood was collected for heparinized plasma samples via the femoral vein and immediately stored under freezing conditions.
Plasma LH concentrations were determined by a bioassay using mouse testicular cells. The testicular cells were collected from male BALB/c mice (8 to 9 weeks of age) and washed three times with 1 ml of Dulbecco's modified Eagle medium. (DMEM-H) containing 20 mM HEPES and 0.2% BSA per testis. After incubation at 37° C. for 1 hour, the cells were passed through a nylon mesh filter (70 μm) and dispensed to test tubes at 8×10^5 cells/tube. After the cells were washed twice with 0.4 ml of DMEM-H, 0.4 ml of a DMEM-H solution containing either equine LH (Sigma Company), as the standard LH, or monkey plasma, previously diluted up to 300 fold, as the test sample, was added, followed by a reaction at 37° C. for 2 hours. The testosterone concentration in the culture supernatant was determined by a radioimmunoassay (CIS Diagnostics Company), and the LH concentration in the test monkey plasma was calculated from the standard curve for the standard equine LH.
The results are given together in FIG. 1. […]

Data set [2] deals with T1, human GnRH receptor (Homo sapiens, UniProt P30968).
T1 construct: expressed in transfected cells; host or cells: CHO (Chinese hamster ovary) cells
T1 sequence (P30968 1-328): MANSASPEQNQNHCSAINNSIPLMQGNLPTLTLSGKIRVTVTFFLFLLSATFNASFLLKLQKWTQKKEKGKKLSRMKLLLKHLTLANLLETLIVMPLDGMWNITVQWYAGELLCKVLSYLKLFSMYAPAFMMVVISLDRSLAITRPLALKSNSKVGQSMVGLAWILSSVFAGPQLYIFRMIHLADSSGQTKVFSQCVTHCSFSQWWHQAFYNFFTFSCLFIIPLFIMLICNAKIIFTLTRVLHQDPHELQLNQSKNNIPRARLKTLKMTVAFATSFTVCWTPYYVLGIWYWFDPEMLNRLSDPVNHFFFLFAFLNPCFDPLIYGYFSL
Briefly: 125I-leuprorelin binding inhibition, CHO cell membrane fraction containing human GnRH receptor. Conditions: 25° C. for 60 minutes, Hill plot.
Experimental: To the cell pellet, 10 ml of a cell homogenate buffer (10 mM NaHCO3, 5 mM EDTA, pH 7.5) was added, followed by homogenization using the Polytron homogenizer. […] This precipitate was suspended in 2 ml of an assay buffer and centrifuged at 100,000×g for 1 hour. The membrane fraction recovered as a precipitate was again suspended in 20 ml of the assay buffer, dispensed, and stored at −80° C. before use upon thawing. […] To determine maximum binding quantity, a reaction mixture of 2 μl of 60% DMSO and 10 μl of 38 nM ^125I-leuprorelin was prepared. […] Where the membrane fraction of the CHO with human GnRH receptors expressed was used, the reaction was carried out at 25° C. for 60 minutes. After each reaction, the reaction mixture was aspirated and filtered through a polyethyleneimine-treated Whatman glass filter (GF-F). After this filtration, the radioactivity of ^125I-leuprorelin remaining on the filter paper was measured with a γ-counter. The expression (TB-SB)/(TB-NSB)×100 (where SB=radioactivity with the compound added, TB=maximum bound radioactivity, NSB=nonspecifically bound radioactivity) was calculated to find the binding inhibition rate (%) of each test compound. Furthermore, the inhibition rate was determined by varying the concentration of the test substance and the 50% inhibitory concentration (IC50 value) of the compound was calculated from Hill plot.

Data set [3] has as its target T2, GnRH receptors (rat pituitary anterior lobe membrane fraction) (Rattus norvegicus, UniProt P30969).
T2 construct: Anterior lobes of the pituitary glands were isolated from forty Wistar rats; from tissue; host or cells: anterior lobes of pituitary glands of male Wistar rats
T2 sequence (P30969 1-327): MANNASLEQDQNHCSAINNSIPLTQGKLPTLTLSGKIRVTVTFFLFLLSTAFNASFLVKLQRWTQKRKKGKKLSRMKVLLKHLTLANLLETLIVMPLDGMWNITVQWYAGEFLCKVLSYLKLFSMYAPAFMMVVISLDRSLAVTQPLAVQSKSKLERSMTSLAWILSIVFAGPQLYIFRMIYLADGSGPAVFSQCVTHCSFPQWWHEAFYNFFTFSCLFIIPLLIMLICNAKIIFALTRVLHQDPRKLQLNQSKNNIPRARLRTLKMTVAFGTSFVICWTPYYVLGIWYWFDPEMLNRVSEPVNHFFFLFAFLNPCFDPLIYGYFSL
The data set can be described thus: 125I-leuprorelin binding inhibition, rat pituitary anterior lobe membrane fraction. How it is done:
(1) Preparation of ^125I-leuprorelin To a tube containing 10 μl of a 3×10^−4M aqueous solution of leuprorelin and 10 μl of 0.01 mg/ml lactoperoxidase, 10 μl (37MBq) of a solution of Na^125I was added. After stirring, 10 μl of 0.001% H2O2 was added, and a reaction was carried out at room temperature for 20 minutes. By adding 700 μl of a 0.05% TFA (trifluoroacetic acid) solution, the reaction was stopped, followed by purification by reversed-phase HPLC. The HPLC conditions used are shown below. ^125I-leuprorelin was eluted at a retention time of 26 to 27 minutes. […] To determine maximum binding quantity, a reaction mixture of 2 μl of 60% DMSO and 10 μl of 38 nM ^125I-leuprorelin was prepared. […] After this filtration, the radioactivity of ^125I-leuprorelin remaining on the filter paper was measured with a γ-counter. The expression (TB-SB)/(TB-NSB)×100 (where SB=radioactivity with the compound added, TB=maximum bound radioactivity, NSB=nonspecifically bound radioactivity) was calculated to find the binding inhibition rate (%) of each test compound. […]

On to `CONC(=O)Nc1ccc(-c2sc3c(c2CN(C)Cc2ccccc2)c(=O)n(-c2ccccc2)c(=O)n3Cc2c(F)cccc2F)cc1.Cl` [Ex. Compd. No. 2, 5-(N-Benzyl-N-methylaminomethyl)-1-(2,6-difluorobenzyl)-6-[4-(3-methoxyureido)phenyl]-3-phenylthieno[2,3-d]pyrimidine-2,4(1H,3H)-dione hydrochloride], for which, in data set [1] (30 mg/kg oral in 0.5% methyl cellulose, by 24 hours after administration), the “plasma LH concentration, percentage of the baseline LH concentration immediately before administration” value is at most 20%. For the same molecule, in data set [1] (30 mg/kg oral, 48 hours after administration), the “plasma LH concentration at 48 hours after administration” value is on record as “re-elevation of the plasma LH concentration was noted”. Also, in data set [1] (administered orally, 30 mg/kg), the “effect on blood LH concentration” value was “significant depressive effect on blood LH concentration”.
For the molecule `CONC(=O)Nc1ccc(-c2sc3c(c2CN2Cc4ccccc4C2)c(=O)n(-c2ccccc2)c(=O)n3Cc2c(F)cccc2F)cc1` [Ex. Compd. No. 4-2], the half-inhibitory concentration (IC50) (usually the concentration at which inhibition is half-maximal) in data set [2] is 0.0002 µM; in data set [3] (125I-leuprorelin binding, calculated from Hill plot), 0.5 µM. Also, the inhibition (in general, the relative decrease from the control value, in per cent) at 1 µM in data set [3] (read-out: binding inhibition rate (%) Rat (1 μM), 1 μM compound, 125I-leuprorelin, 4° C. for 90 minutes) was 64%.
Regarding `CN(Cc1ccccc1)Cc1c(-c2ccc(NC(=O)NO)cc2)sc2c1c(=O)n(-c1ccccc1)c(=O)n2Cc1c(F)cccc1F` [Example 5, 5-(N-Benzyl-N-methylaminomethyl)-1-(2,6-difluorobenzyl)-6-[4-(3-hydroxyureido)phenyl]-3-phenylthieno[2,3-d]pyrimidine-2,4(1H,3H)-dione], the melting point (in general, the temperature, or range, at which the solid turns liquid) was 164 to 165 °C.
`CN(Cc1ccccc1)Cc1c(-c2ccc(NC(=O)NCCO)cc2)sc2c1c(=O)n(-c1ccccc1)c(=O)n2Cc1c(F)cccc1F` [Example 7, 5-(N-Benzyl-N-methylaminomethyl)-1-(2,6-difluorobenzyl)-6-[4-[3-(2-hydroxyethyl)ureido]phenyl]-3-phenylthieno[2,3-d]pyrimidine-2,4(1H,3H)-dione] yielded a melting point of 220 to 222 °C.
